Results: BindingDB's records for doi:10.1016/S0960-894X(01)81014-3 (1993)
Residues, ends and D or L forms follow the SMILES beside them. *: point of attachment. Adamantane1carbonyl = O=C(C12CC3CC(CC(C3)C1)C2)*

Assay: Compound was evaluated for binding affinity against Opioid receptor delta 1 binding assay: Inactive

CC[C@H](C)[C@H](NC(=O)[C@H](Cc1ccc(O)cc1)NC(=O)[C@@H]1CCCN1C(=O)[C@H](CCCCN)NC(=O)C12CC3CC(CC(C3)C1)C2)C(=O)N[C@@H](CC(C)C)C(=O)O [(S)-2-{(2S,3S)-2-[(S)-2-[((S)-1-{(S)-2-[(Adamantane-1-carbonyl)-amino]-6-amino-hexanoyl}-pyrrolidine-2-carbonyl)-amino]-3-(4-hydroxy-phenyl)-propionylamino]-3-methyl-pentanoylamino}-4-methyl-pentanoic acid] (Adamantane1carbonyl-KPYIL-OH)
Ki: > 100 µM
